In US20250098680A1 (priority 2022, published 2025):

Columns and labels:
Cucumber downey mildew = settings: described in JP2003081945A; cited from earlier work
Phytophthora infestans [1] = assay type: cell-based; settings: for effective pesticide against Phytophthora infestans (summary in words): summary of in vitro screening; for Bio-activity value Phytophthora infestans: tomato leaf discs, compound dissolved in DMSO, visual score 5 days, % from maximal value
[2] = tested on: Pseudoperonospora cubensis; assay: Microplate-based cucumber leaf disc screening against Pseudoperonospora cubensis; assay type: cell-based
Protocol: Background: Pseudoperonospora cubensis is an obligatory pathogen from Oomycetes which is very difficult to grow on synthetic medium. Therefore, the bioactivity screening system based on leaf discs prepared from detached cucumber leaves were used.
Summary: dihydroquinidine or dihydroquinine were dissolved in DMSO were added to cucumber leaf discs infected with Pseudoperonospora and the disease progress was monitored by visual inspection.
General description: Inoculation and maintenance on cucumber leaves, preparation of spore suspension, their growth on leaf discs in microplates and inspection by magnifying glass of Pseudoperonospora cubensis severity of infection.
• 1) Grow plants, in the growth room (27° C.), high light radiation. • 2) Use standard garden soil. • 3) Plant cucumber seeds. • 4) Add fertilizer once a week.
• 1) Put 3 (double) pieces of sterile paper in a square Petri dish. • 2) Work in sterile conditions. • 3) Use leaves from healthy plants. The leaves should be young and healthy, their size should fit to the square plate. • 4) Cut the leaves by a sterile scalpel, leaving a long stem. • 5) Add 10 ml sterile distilled water to wet the paper (the paper should be maximally wet, but without additional dripping water), discard excess of water. […]

Phytophthora infestans [3] = assay type: in vivo, Phytophthora infestans on tomato; settings: tomato seedlings, greenhouse, preventative spraying, Formulation 15 or 16, four independent experiments (FIGS. 1-4)

SMILES | bioactivity against Cucumber downey mildew (Cucumber downey mildew) | effective pesticide against Phytophthora infestans (summary in words) (Phytophthora infestans [1]) | Bio-activity value Phytophthora infestans (Phytophthora infestans [1]) | Bio-activity value Pseudoperonospora cubensis ([2]; cucumber leaf discs, compound dissolved in DMSO, visual score 7 days after inoculation, % from maximal value) | effective pesticide against Pseudoperonospora cubensis (summary in words) ([2]; summary of in vitro screening) | efficacy of control of Phytophthora infection (Phytophthora infestans [3])
C=C[C@H]1C[N@@]2CC[C@H]1C[C@H]2[C@H](O)c1ccnc2ccc(OC)cc12 [quinine] | fungicidal bioactivity | – | – | – | – | –
CCC1C[N@]2CC[C@H]1C[C@H]2C(O)c1ccnc2ccc(OC)cc12 (stereo in doubt) [DIHYDROQUININE, (R)-[(2S,4S,5R)-5-ethyl-1-azabicyclo[2.2.2]octan-2-yl](6-methoxyquinolin-4-yl) methanol] | – | affective | 83% | – | – | –
CCC1C[N@]2CC[C@H]1C[C@@H]2C(O)c1ccnc2ccc(OC)cc12 (stereo in doubt) [DIHYDROQUINIDINE, (S)-[(2R,4S,5R)-5-ethyl-1-azabicyclo[2.2.2]octan-2-yl](6-methoxyquinolin-4-yl) methanol] | – | effective | 100% | 66% | effective | up to 89.38%
